The test system of one data set is Neutrophils. Briefly: Neutrophil survival with BAL or GM-CSF after antisense/missense oligonucleotides (Example 7). The class given is cell-based, human. To be noted: oligonucleotides 0 to 10 μM. As for the experimental part: Neutrophils are purified as normal and resuspended in culture medium (RPMI+10% FCS) to give a final conc. of 2×10^6/ml. Five hundred microlitres are added to each well of a 24 well plate, to give a final concentration of 1×10^6/well.
Either antisense or missense oligonucleotides are added directly to each well over a range of concentrations between 0 μM to 10 μM.
Cells are then incubated for time intervals between 15 mins to 8 hours. Bronchoalveolar lavage (BAL) fluid, obtained from patients with chronic inflammation, including cystic fibrosis, chronic obstructive pulmonary disease or healthy controls, is then added to each well. As a positive control for increased survival, neutrophils are treated with GM-CSF (0 to 20 units).
Neutrophil apoptosis is measured as described in Example 1.

The test system of another data set is Survivin mRNA. Briefly: LifeGrid microarray of Survivin transcripts in neutrophils. The class given is cell-based, human. To be noted: gliotoxin added in the presence of GM-CSF. The protocol: Primary human neutrophils are isolated and purified from peripheral blood of normal healthy individuals using standard techniques. Neutrophils are resuspended in serum containing culture medium together with GM-CSF (50 U) at a concentration of 2×10^6/ml, and cultured for 0 h (control), 2 h, 4 h and 6 h at 37° C. Total RNA is then prepared from both groups using acid phenol/guanidine isothiocyanate extraction (RNAzol B; Biogenesis), or RNeasy RNA preparation kits (Qiagen). Any contaminating genomic DNA is removed by DNase treatment (DNase I, Gibco-BRL). […]
This example describes the use of a STORM Phosphoimager to quantitatively image positive signals across the filter arrays. […]
The captured image file is then analysed using software such as Array Vision (Imaging Research Inc.; See FIG. 5). […] This program contains facilities for spot detection and quantification, and background detection and quantification. […] As the data is imported to the database, a Normalisation factor is calculated and the sDENs values modified accordingly. […] A normalization factor may be derived from Linear Regression calculated by reference to housekeeping genes. Alternatively, the Global Mean is calculated as the average of the sDens values across all of the arrays to be compared and a normalisation factor is then derived by division of the overall spot density with the Global Mean value. […]

Data set [1] relates to Primary human neutrophils. Briefly: MTT survival assay of neutrophils cultured with GM-CSF, with or without gliotoxin. The class given is cell-based. As for the experimental part:
Primary human neutrophils are isolated and purified from peripheral blood of normal healthy individuals. Neutrophils are resuspended in serum containing culture medium together with various amounts of GM-CSF at a density of 2×10^6/ml, with 100 μl plated into a 96 well plate and cultured for 18 h at 37° C. After this time 10 μl of MTT (5 mg/ml) is added to the cultures and incubated for a further 4 h at 37° C. before solubilisation of the purple coloured formazan with acidic isopropanol. Optical densities are read at 570 nm using a plate reader.
Primary human neutrophils are isolated and purified from peripheral blood of normal healthy individuals. Neutrophils are resuspended in serum containing culture medium containing 5 U/ml of GM-CSF at a concentration of 2×10^6/ml. […] After the indicated time, 10 μl of MTT (5 mg/ml) are added to the cultures and incubated for a further 4 h at 37° C. before solubilisation of the purple coloured formazan with acidic isopropanol. Optical densities are read at 570 nm using a plate reader.

The next data set has as its system HL60 cells. Briefly: DNA fragmentation by agarose gel electrophoresis in differentiated HL60 cells. To be noted: 10 μM Retinoic acid. The data set is classed as cell-based. As for the experimental part:
HL60 cells are seeded at 5×10^6cells in T25 flasks and incubated with 10 μM Retinoic acid for 24, 48, 72, 96, 120 and 144 hrs. Mock treated HL-60 cells were used as a control. Cellular DNA was analysed for fragmentation into oligonucleosomal-size fragments and their multiples by agarose gel electrophoresis. Lanes 1,3,5,7,9,11 contain DNA from HL-60 cells that were differentiated with 10 μM Retinoic Acid over the indicated period whereas samples in lanes 2,4,6,8,10,12,14 are from control HL-60 cells treated for the same time period. Lane 15 is a 1 Kb Plus Ladder Molecular Marker.

Take “5′-CCCAgCCTTCCAgCTCCTTg-3′ (antisense 5'-CCCAgCCTTCCAgCTCCTTg-3'; as printed in the source, key not given here) [antisense Survivin oligonucleotides]”: the “survival of neutrophils treated with BAL” value in the data set with Neutrophils (BAL derived from patients with chronic inflammation) is “inhibits the survival”. Also, in the data set with Neutrophils (GM-CSF as control cytokine), the “survival of neutrophils treated with control cytokine GM-CSF” value is listed as “inhibits the survival”.

With `CN1C(=O)[C@]23CC4=CC=C[C@H](O)[C@H]4N2C(=O)[C@@]1(CO)SS3` [gliotoxin, Gliotoxin], the “Increased expression of Survivin following GM-CSF treatment” value with Survivin mRNA was “blocked”. Further, the “block of the GM-CSF inhibition of neutrophil apoptosis (MTT)” value in data set [1] (0.1 μg/ml added with 5 U/ml GM-CSF) is given as “effectively blocks”. Besides, the “neutrophil apoptosis with the compound alone (MTT)” value in data set [1] (added alone to isolated neutrophils, no GM-CSF) is “No increased neutrophil apoptosis”.

Consider `CC1=C(/C=C/C(C)=C/C=C/C(C)=C/C(=O)O)C(C)(C)CCC1` [retinoic acid, Retinoic acid], for which the “onset of apoptosis after differentiation” value with HL60 cells is around 4 days.
